Data published in ChEMBL document CHEMBL2163239, “Inhibitors of human immunodeficiency virus type 1 (HIV-1) attachment 6. Preclinical and human pharmacokinetic profiling of BMS-663749, a phosphonooxymethyl prodrug of the HIV-1 attachment inhibitor 2-(4-benzoyl-1-piperazinyl)-1-(4,7-dimethoxy-1H-pyrrolo[2,3-c]pyridin-3-yl)-2-oxoethanone …” (J Med Chem, 2012).
Activity calls are given as the source filed them. No cut-off for these calls is given here.

Columns and labels:
Homo sapiens = test: Toxicity in HIV 1-infected human assessed as adverse events at 1800 mg, po bid for 8 days measured upto 14 days; format: organism-based; details: in vivo
[1] = tested on: Human immunodeficiency virus 1; test: Antiviral activity against HIV 1-infected human assessed as reduction in viral load at 1800 mg, po bid for 8 days measured upto 14 days; format: functional, organism-based
[2] = Lipophilicity, log P of compound in octanol-PBS mixture at pH 6.5 by HPLC-UV analysis; format: physicochemical
[3] = Permeability across human Caco2 cells at pH 6.5; format: ADME, cell-based; details: Caco-2, pH 6.5, read-out: permeability
[4] = Cmax in high fat fed healthy human at 800 mg, po administered as capsule with high fat meal; format: ADME, organism-based; design: dose 800 mg, route oral; details: in vivo
[5] = Tmax in high fat fed healthy human at 800 mg, po administered as capsule with high fat meal; format: ADME, organism-based; details: in vivo
[6] = AUC (infinity) in high fat fed healthy human at 800 mg, po administered as capsule with high fat meal; format: ADME, organism-based; design: dose 800 mg, time infinity, route oral; details: plasma
[7] = Half life in high fat fed healthy human at 800 mg, po administered as capsule with high fat meal; format: ADME, organism-based; details: in vivo
[8] = Plasma concentration in high fat fed healthy human at 800 mg, po administered as capsule with high fat meal measured after 12 hrs; format: ADME, organism-based
[9] = Dissociation constant, pKa of compound; format: physicochemical

SMILES: COc1ncc(OC)c2c(C(=O)C(=O)N3CCN(C(=O)c4ccccc4)CC3)c[nH]c12
- Activity (Homo sapiens): Non-toxic
- Activity [1]: Active
- logD [2]: 1.5
- Papp [3]: > 10 ×10⁻⁶ cm/s
- Cmax [4]: 4100 ng/mL
- Tmax [5]: 4 h
- AUC(0-inf) [6]: 21200 ng·h/mL
- half-life [7]: 840 min
- concentration at 12 h [8]: 175 ng/mL
- pKa [9]: 2.6
